Compound: CC1=NN=C(O1)C2=NN=C(C=C2)N3CCC(CC3)OC4=C(C=CC(=C4)F)Cl + NC(=O)Nc1cc(-c2cccc(F)c2)sc1C(=O)N[C@H]1CCCNC1 [AZD7762] (partner 0.2 µM)
Experiment: relative viability (nuclei count vs DMSO), 5 days (fraction); higher = more cells survive
Details: first compound 8 µM
Procedure, shortened: (§1)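 Five library-drug doses in √10 steps were combined with a fixed anchor-drug dose, or a single drug was given alone, by pin tool to lung cancer cell lines in 1536-well plates the day after seeding. Nuclei were stained and counted after 5 days. Relative viability is the nuclei count in treated wells over that in vehicle wells, taken as the median of duplicate plates.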

Compared with NCI-H2342, H3255 is higher in relative viability: 0.299 for the first, 0.639 for the second.

Going from LU99A to ChaGo-K-1, the relative viability rises from 0.385 to 0.594.

Going from NCI-H2170 to NCI-H460, the relative viability falls from 0.367 to 0.23.

First: HOP-62
Second: HCC-44
The relative viability of the first is lower: 0.228 for the first, 0.452 for the second.

Going from SW 900 to LXF-289, the relative viability rises from 0.66 to 0.967.

First: NCI-H1648
Second: CAL-12T
The relative viability of the first is higher: 0.503 for the first, 0.479 for the second.

Compound: CC1=NN=C(O1)C2=NN=C(C=C2)N3CCC(CC3)OC4=C(C=CC(=C4)F)Cl + Nc1ncn([C@H]2C[C@H](O)[C@@H](CO)O2)c(=O)n1 [Decitabine] (partner 2 µM)
Experiment: as above
Details: first compound 0.253 µM
Procedure, shortened: as §1

Going from NCI-H522 to SK-LU-1, the relative viability rises from 0.629 to 0.667.

Going from NCI-H1792 to NCI-H2087, the relative viability falls from 0.396 to 0.238.

Going from NCI-H596 to NCI-H1355, the relative viability falls from 1.01 to 0.311.

Going from SW 1573 to LCLC-103H, the relative viability falls from 0.517 to 0.491.

Compared with NCI-H727, NCI-H2405 is lower in relative viability: 0.916 for the first, 0.452 for the second.

Compared with EMC-BAC-2, NCI-H23 is lower in relative viability: 0.903 for the first, 0.268 for the second.

First: HCC-366
Second: NCI-H1755
The relative viability of the first is lower: 0.242 for the first, 0.524 for the second.

Compared with NCI-H838, LK-2 is lower in relative viability: 0.467 for the first, 0.401 for the second.

Going from NCI-H2347 to NCI-H2342, the relative viability rises from 0.544 to 0.579.

Compared with SK-MES-1, H3255 is higher in relative viability: 0.369 for the first, 0.484 for the second.

Going from COR-L23 to COR-L 105, the relative viability rises from 0.383 to 0.676.

First: LU99A
Second: ChaGo-K-1
The relative viability of the first is higher: 0.891 for the first, 0.392 for the second.

Compared with NCI-H2170, NCI-H460 is lower in relative viability: 0.366 for the first, 0.164 for the second.

First: HOP-62
Second: HCC-44
The relative viability of the first is lower: 0.189 for the first, 0.44 for the second.

Compared with A549, LXF-289 is higher in relative viability: 0.223 for the first, 0.317 for the second.

First: NCI-H1648
Second: NCI-H661
The relative viability of the first is lower: 0.378 for the first, 0.519 for the second.

Compared with NCI-H2023, NCI-H2009 is higher in relative viability: 0.191 for the first, 0.322 for the second.

Going from NCI-H520 to NCI-H1650, the relative viability falls from 0.603 to 0.338.

Same assay, conditions: first compound 0.8 µM

First: NCI-H522
Second: SK-LU-1
The relative viability of the first is higher: 0.624 for the first, 0.517 for the second.

Compared with NCI-H1792, NCI-H2087 is lower in relative viability: 0.507 for the first, 0.265 for the second.

First: NCI-H596
Second: NCI-H1355
The relative viability of the first is higher: 0.977 for the first, 0.333 for the second.

Compared with SW 1573, LCLC-103H is higher in relative viability: 0.471 for the first, 0.694 for the second.

Going from NCI-H727 to NCI-H2405, the relative viability falls from 0.873 to 0.43.

Compared with EMC-BAC-2, NCI-H23 is lower in relative viability: 0.837 for the first, 0.328 for the second.

First: HCC-366
Second: NCI-H1755
The relative viability of the first is lower: 0.207 for the first, 0.54 for the second.

Going from NCI-H838 to LK-2, the relative viability falls from 0.463 to 0.279.

Compared with NCI-H2347, NCI-H2342 is lower in relative viability: 0.593 for the first, 0.552 for the second.

Going from SK-MES-1 to H3255, the relative viability rises from 0.388 to 0.525.

Compared with COR-L23, COR-L 105 is higher in relative viability: 0.409 for the first, 0.592 for the second.

First: LU99A
Second: ChaGo-K-1
The relative viability of the first is higher: 0.913 for the first, 0.465 for the second.

Going from NCI-H2170 to NCI-H460, the relative viability falls from 0.323 to 0.167.

First: HOP-62
Second: HCC-44
The relative viability of the first is lower: 0.184 for the first, 0.413 for the second.

Going from A549 to SW 900, the relative viability rises from 0.218 to 0.467.

Compared with LXF-289, NCI-H1648 is higher in relative viability: 0.323 for the first, 0.465 for the second.

Compared with NCI-H661, NCI-H2023 is lower in relative viability: 0.465 for the first, 0.185 for the second.

Going from NCI-H2009 to NCI-H520, the relative viability rises from 0.304 to 0.495.

NCI-H1650 gave a relative viability of 0.402.

Same assay, conditions: first compound 2.53 µM

First: NCI-H522
Second: SK-LU-1
The relative viability of the first is lower: 0.573 for the first, 0.595 for the second.

First: NCI-H1792
Second: NCI-H2087
The relative viability of the first is higher: 0.558 for the first, 0.268 for the second.

Going from NCI-H596 to NCI-H1355, the relative viability falls from 1.08 to 0.334.

Compared with SW 1573, LCLC-103H is higher in relative viability: 0.482 for the first, 0.552 for the second.

Going from NCI-H727 to NCI-H2405, the relative viability falls from 0.905 to 0.485.

First: EMC-BAC-2
Second: NCI-H23
The relative viability of the first is higher: 0.957 for the first, 0.295 for the second.

Compared with HCC-366, NCI-H1755 is higher in relative viability: 0.292 for the first, 0.605 for the second.

First: NCI-H838
Second: LK-2
The relative viability of the first is higher: 0.442 for the first, 0.325 for the second.

First: NCI-H2347
Second: NCI-H2342
The relative viability of the first is higher: 0.568 for the first, 0.528 for the second.

First: SK-MES-1
Second: H3255
The relative viability of the first is lower: 0.356 for the first, 0.464 for the second.

Going from COR-L23 to COR-L 105, the relative viability rises from 0.396 to 0.667.

Going from LU99A to ChaGo-K-1, the relative viability falls from 0.812 to 0.391.

Compared with NCI-H2170, NCI-H460 is lower in relative viability: 0.357 for the first, 0.201 for the second.

Going from HOP-62 to HCC-44, the relative viability rises from 0.19 to 0.436.

First: A549
Second: SW 900
The relative viability of the first is lower: 0.222 for the first, 0.395 for the second.

First: LXF-289
Second: NCI-H1648
The relative viability of the first is lower: 0.343 for the first, 0.433 for the second.

Going from NCI-H661 to NCI-H2023, the relative viability falls from 0.407 to 0.186.

Going from NCI-H2009 to NCI-H520, the relative viability rises from 0.311 to 0.478.

NCI-H1650 showed a relative viability of 0.387.

Same assay, conditions: first compound 8 µM

First: NCI-H522
Second: SK-LU-1
The relative viability of the first is higher: 0.65 for the first, 0.557 for the second.

Compared with NCI-H1792, NCI-H2087 is lower in relative viability: 0.442 for the first, 0.271 for the second.

Compared with NCI-H596, NCI-H1355 is lower in relative viability: 0.762 for the first, 0.339 for the second.

First: SW 1573
Second: LCLC-103H
The relative viability of the first is lower: 0.378 for the first, 0.435 for the second.

Compared with NCI-H727, NCI-H2405 is lower in relative viability: 0.862 for the first, 0.443 for the second.

Going from EMC-BAC-2 to NCI-H23, the relative viability falls from 0.794 to 0.282.

First: HCC-366
Second: NCI-H1755
The relative viability of the first is lower: 0.252 for the first, 0.503 for the second.

First: NCI-H838
Second: LK-2
The relative viability of the first is higher: 0.451 for the first, 0.315 for the second.

Compared with NCI-H2347, NCI-H2342 is higher in relative viability: 0.471 for the first, 0.5 for the second.

Going from SK-MES-1 to H3255, the relative viability rises from 0.326 to 0.564.

Compared with COR-L23, COR-L 105 is higher in relative viability: 0.409 for the first, 0.638 for the second.

Compared with LU99A, ChaGo-K-1 is lower in relative viability: 0.834 for the first, 0.374 for the second.

First: NCI-H2170
Second: NCI-H460
The relative viability of the first is higher: 0.321 for the first, 0.166 for the second.

Going from HOP-62 to HCC-44, the relative viability rises from 0.18 to 0.425.

Going from A549 to SW 900, the relative viability rises from 0.208 to 0.426.

Compared with LXF-289, NCI-H1648 is higher in relative viability: 0.3 for the first, 0.473 for the second.

First: NCI-H661
Second: NCI-H2023
The relative viability of the first is higher: 0.396 for the first, 0.176 for the second.

Going from NCI-H2009 to NCI-H520, the relative viability rises from 0.268 to 0.362.

Cell Line NCI-H1650 has a relative viability of 0.392.

— the supplement of paper PMC10307832
